Data reported in the supplement of paper PMC10627819.

How the values were obtained:
S. pneumoniae D39V [1] = experiment: fitness (endpoint OD595 vs no drug) (fraction); higher = more growth
Summary of the method: (§1)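 Each well of a 384-well plate received 30 µl of culture at OD595 0.01, or 55 µl for S. pneumoniae. TSB, LB Lennox or CY served as media at 37 °C. OD595 was taken every 30 min for 14 h and corrected by subtracting the first reading. Fitness is the optical density at stationary-phase entry divided by the robust mean of no-drug controls, capped at 1.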

B. subtilis 168 [2] = experiment: Bliss interaction score (quartile over a dose matrix) (fitness difference); higher = more antagonism (negative = synergy)
Summary of the method: (§2)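 Quartiles of the Bliss score were taken over technical, biological and donor/recipient replicates. That score is observed fitness minus the product of the single-drug fitness values, which were inferred from combination data. Fitness itself is OD595 at entry into stationary phase divided by the plate's robust no-drug mean, with a cap at 1.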

S. aureus DSM 20231 = experiment: as above
Summary of the method: as §2

S. aureus Newman = experiment: as above
Summary of the method: as §2

S. pneumoniae D39V [3] = experiment: as above
Summary of the method: as §2

B. subtilis 168 [4] = experiment: fitness (endpoint OD595 vs no drug) (fraction); higher = more growth
Summary of the method: as §1
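Wherever Bliss interaction score (quartile over a dose matrix) is given: first quartile when negative (synergy) and third quartile when positive (antagonism).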

C[C@H]1COc2c(N3CCN(C)CC3)c(F)cc3c(=O)c(C(=O)O)cn1c23 [Levofloxacin] + CN[C@H](CC(C)C)C(=O)N[C@H]1C(=O)N[C@@H](CC(N)=O)C(=O)N[C@H]2C(=O)N[C@H]3C(=O)N[C@H](C(=O)N[C@H](C(=O)O)c4cc(O)cc(O)c4-c4cc3ccc4O)[C@H](O)c3ccc(c(Cl)c3)Oc3cc2cc(c3O[C@@H]2O[C@H](CO)[C@@H](O)[C@H](O)[C@H]2O[C@H]2C[C@](C)(N)[C@H](O)[C@H](C)O2)Oc2ccc(cc2Cl)[C@H]1O [Vancomycin]
fitness, S. pneumoniae D39V [1]
Conditions | first compound 0.1725 µg/mL | first compound 0.2 µg/mL | first compound 0.345 µg/mL | first compound 0.4 µg/mL | first compound 0.69 µg/mL | first compound 0.8 µg/mL
partner 0.03125 µg/mL | – | 0.931 | – | 0.834 | – | 0.365
partner 0.0625 µg/mL | – | 0.893 | – | 0.812 | – | 0.436
partner 0.125 µg/mL | 0.857 | 0.704 | 0.818 | 0.605 | – | 0.292
partner 0.25 µg/mL | – | – | – | – | 0.213 | –
partner 0.5 µg/mL | 0.0371 | – | 0.0522 | – | 0.0787 | –

Conditions | Bliss interaction score
B. subtilis 168 [2] | 0.0448
S. aureus DSM 20231 | -0.0494
S. aureus Newman | -0.0425
S. pneumoniae D39V [3] | -0.1

C[C@H]1COc2c(N3CCN(C)CC3)c(F)cc3c(=O)c(C(=O)O)cn1c23 [Levofloxacin] + CO[C@@H]1[C@@H](OC(N)=O)[C@@H](O)[C@H](Oc2ccc3c(O)c(NC(=O)c4ccc(O)c(CC=C(C)C)c4)c(=O)oc3c2C)OC1(C)C [Novobiocin]
fitness, B. subtilis 168 [4], one replicate
Conditions | partner 0.05 µg/mL | partner 0.1 µg/mL | partner 0.125 µg/mL | partner 0.2 µg/mL | partner 0.25 µg/mL | partner 0.5 µg/mL
first compound 0.001 µg/mL | ≥ 1 | ≥ 1 | – | ≥ 1 | – | –
first compound 0.002 µg/mL | 0.929 | 0.952 | 0.908 | 0.933 | 0.874 | 0.493
first compound 0.0039 µg/mL | 0.965 | ≥ 1 | 0.839 | 0.928 | 0.808 | 0.505
first compound 0.0078 µg/mL | – | – | 0.864 | – | 0.808 | 0.457

fitness, B. subtilis 168 [4]
Conditions | first compound 0.0312 µg/mL | first compound 0.0625 µg/mL | first compound 0.125 µg/mL
partner 0.0125 µg/mL | 0.0275 | 0.0273 | 0.0195
partner 0.025 µg/mL | 0.0255 | 0.0301 | 0.0265
partner 0.05 µg/mL | 0.028 | 0.0286 | 0.0286

Conditions | Bliss interaction score
B. subtilis 168 [2] | -0.0305
S. aureus DSM 20231 | -0.0698
S. aureus Newman | -0.091
S. pneumoniae D39V [3] | -0.121

C[C@H]1COc2c(N3CCN(C)CC3)c(F)cc3c(=O)c(C(=O)O)cn1c23 [Levofloxacin] + CO[C@H]1/C=C/O[C@@]2(C)Oc3c(C)c(O)c4c(O)c(c(/C=N/N5CCN(C)CC5)c(O)c4c3C2=O)NC(=O)/C(C)=C\C=C\[C@H](C)[C@H](O)[C@@H](C)[C@@H](O)[C@@H](C)[C@H](OC(C)=O)[C@@H]1C [Rifampicin]
fitness, S. pneumoniae D39V [1]
Conditions | first compound 0.1725 µg/mL | first compound 0.345 µg/mL | first compound 0.4 µg/mL | first compound 0.69 µg/mL | first compound 0.8 µg/mL
partner 0.05 µg/mL | 0.902 | 0.848 | 0.724 | 0.611 | 0.665
partner 0.2 µg/mL | 0.356 | – | – | 0.288 | –

fitness, S. pneumoniae D39V [1], one replicate
Conditions | first compound 0.2 µg/mL | first compound 0.4 µg/mL | first compound 0.8 µg/mL
partner 0.025 µg/mL | 0.843 | 0.805 | 0.725
partner 0.2 µg/mL | 0 | 0 | 0

Conditions | Bliss interaction score
B. subtilis 168 [2] | 0.0398
S. aureus DSM 20231 | 0.0251
S. aureus Newman | 0.0412
S. pneumoniae D39V [3] | 0.11

C[C@H]1COc2c(N3CCN(C)CC3)c(F)cc3c(=O)c(C(=O)O)cn1c23 [Levofloxacin] + COc1cc(Cc2cnc(N)nc2N)cc(OC)c1OC [Trimethoprim]
B. subtilis 168 [4], one replicate
Conditions | fitness
first compound 0.001 µg/mL, partner 0.125 µg/mL | 0.528
first compound 0.001 µg/mL, partner 0.25 µg/mL | 0.41
first compound 0.001 µg/mL, partner 0.5 µg/mL | 0.456
first compound 0.002 µg/mL, partner 0.1 µg/mL | 0.907
first compound 0.002 µg/mL, partner 0.2 µg/mL | 0.804
first compound 0.002 µg/mL, partner 0.4 µg/mL | 0.572
first compound 0.0039 µg/mL, partner 0.1 µg/mL | 0.884
first compound 0.0039 µg/mL, partner 0.2 µg/mL | 0.745
first compound 0.0039 µg/mL, partner 0.4 µg/mL | 0.548
first compound 0.0078 µg/mL, partner 0.1 µg/mL | 0.872
first compound 0.0078 µg/mL, partner 0.125 µg/mL | 0.736
first compound 0.0078 µg/mL, partner 0.2 µg/mL | 0.696
first compound 0.0078 µg/mL, partner 0.4 µg/mL | 0.521
first compound 0.0312 µg/mL, partner 1 µg/mL | 0.0312
first compound 0.0312 µg/mL, partner 2 µg/mL | 0.0414
first compound 0.0625 µg/mL, partner 1 µg/mL | 0.0468
first compound 0.0625 µg/mL, partner 2 µg/mL | 0.0379
first compound 0.125 µg/mL, partner 1 µg/mL | 0.0309
first compound 0.125 µg/mL, partner 2 µg/mL | 0.0616

fitness, B. subtilis 168 [4]
Conditions | first compound 0.002 µg/mL | first compound 0.0039 µg/mL | first compound 0.0078 µg/mL | first compound 0.0312 µg/mL | first compound 0.0625 µg/mL | first compound 0.125 µg/mL
partner 0.125 µg/mL | 0.554 | 0.564 | – | – | – | –
partner 0.25 µg/mL | – | – | 0.689 | – | – | –
partner 0.5 µg/mL | 0.423 | 0.414 | 0.494 | 0.0339 | 0.0357 | 0.0365

Conditions | Bliss interaction score
B. subtilis 168 [2] | 0.0693
S. aureus DSM 20231 | -0.0537
S. aureus Newman | -0.109
S. pneumoniae D39V [3] | -0.112
